Experimental data reported in patent publication US10266526B2, “Substituted 1,2,3-triazoles as SMYD inhibitors for treating cancer” (EPIZYME, INC., priority 2014, dated 2019).

What follows are compounds tested against SMYD3 (Homo sapiens (Human), UniProt Q9H7B4) (assay: SMYD3 biochemical assay (SMYD3 enzyme assay on MEKK2 protein substrate, 3H-SAM scintillation proximity assay)). Details: read-out: SMYD3 Biochem IC50.
Summary of the method: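 Native full-length human SMYD3, expressed in E. coli, was preincubated with compound for 30 min at room temperature in 25 mM Tris-Cl pH 8.0, 1 mM TCEP, 0.005% BSG and 0.005% Tween 20. ³H-SAM plus GST-MEKK2 then started the reaction. It was stopped with unlabeled SAM (100 uM final), and methylated MEKK2 was read by SPA.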

SMYD3, sequence (Q9H7B4 whole entry): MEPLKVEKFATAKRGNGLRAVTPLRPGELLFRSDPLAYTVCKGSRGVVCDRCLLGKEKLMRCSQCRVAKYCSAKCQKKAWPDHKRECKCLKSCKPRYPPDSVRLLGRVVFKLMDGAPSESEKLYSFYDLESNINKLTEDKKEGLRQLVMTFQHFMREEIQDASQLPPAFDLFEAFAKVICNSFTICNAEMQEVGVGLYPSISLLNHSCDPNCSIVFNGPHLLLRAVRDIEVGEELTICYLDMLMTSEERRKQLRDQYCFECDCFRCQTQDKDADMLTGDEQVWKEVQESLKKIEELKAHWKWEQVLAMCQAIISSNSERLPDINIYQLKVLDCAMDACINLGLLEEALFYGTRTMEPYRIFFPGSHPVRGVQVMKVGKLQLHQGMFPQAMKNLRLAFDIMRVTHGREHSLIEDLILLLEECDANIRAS

Q: With `Cc1c(C(=O)NC(C)C2CCN(C(=O)[C@H](C)N)CC2)nnn1-c1ccccc1` (stereo partly drawn) [compound 217, N-(1-(1-(L-alanyl)piperidin-4-yl)ethyl)-5-methyl-1-phenyl-1H-1,2,3-triazole-4-carboxamide] as the compound, how does the IC50 read?
A: > 100 µM

Q: How did the IC50 turn out when `CC1=NN(c2ccc(C(=O)NC(C)C3CCN(C(=O)[C@H](C)N)CC3)cc2)C(=O)C1` (stereo partly drawn) [compound 218, N-(1-(1-(L-alanyl)piperidin-4-yl)ethyl)-4-(3-methyl-5-oxo-4,5-dihydro-1H-pyrazol-1-yl)benzamide] was run?
A: 77 µM

Q: Which IC50 does the source give for `CC(NC(=O)c1ccc2cnn(C)c2c1)C1CCN(C(=O)[C@H](C)N)CC1` (stereo partly drawn) [compound 219, N-(1-(1-(L-alanyl)piperidin-4-yl)ethyl)-1-methyl-1H-indazole-6-carboxamide] here?
A: > 100 µM

Q: Which IC50 does the source give for `COc1ccc2cc(C(=O)NC(C)C3CCN(C(=O)[C@H](C)N)CC3)ccc2c1` (stereo partly drawn) [compound 220, N-(1-(1-(L-alanyl)piperidin-4-yl)ethyl)-6-methoxy-2-naphthamide] here?
A: > 100 µM

Q: `COc1cc(C(=O)NC(C)C2CCN(C(=O)[C@H](C)N)CC2)c2ccccc2n1` (stereo partly drawn) [compound 221, N-(1-(1-(L-alanyl)piperidin-4-yl)ethyl)-2-methoxyquinoline-4-carboxamide] was tested. Which IC50 did it give?
A: > 100 µM

Q: How did the IC50 turn out when `COc1cc(C(=O)N[C@H]2CC[C@H](NC(=O)CCN)CC2)c2ccccc2n1` [compound 222, N-((1r,4r)-4-(3-aminopropanamido)cyclohexyl)-2-methoxyquinoline-4-carboxamide] was run?
A: > 100 µM

Q: `COc1cc(C(=O)N[C@H]2CC[C@H](N)CC2)c2ccccc2n1` [compound 223, N-((1r,4r)-4-aminocyclohexyl)-2-methoxyquinoline-4-carboxamide] was tested. Which IC50 did it give?
A: > 100 µM

Q: `CC(NC(=O)c1cc(=O)c2ccccc2o1)C1CCN(C(=O)[C@H](C)N)CC1` (stereo partly drawn) [compound 224, N-(1-(1-(L-alanyl)piperidin-4-yl)ethyl)-4-oxo-4H-chromene-2-carboxamide] was tested. Which IC50 did it give?
A: > 100 µM

Q: Which IC50 does the source give for `CC(NC(=O)c1cc(O)c2ccccc2n1)C1CCN(C(=O)[C@H](C)N)CC1` (stereo partly drawn) [compound 225, N-(1-(1-(L-alanyl)piperidin-4-yl)ethyl)-4-hydroxyquinoline-2-carboxamide] here?
A: > 100 µM

Q: Which IC50 does the source give for `CC(NC(=O)c1ccc(-n2cnnc2)cc1)C1CCN(C(=O)[C@H](C)N)CC1` (stereo partly drawn) [compound 226, N-(1-(1-(L-alanyl)piperidin-4-yl)ethyl)-4-(4H-1,2,4-triazol-4-yl)benzamide] here?
A: > 100 µM

Q: With `CC(NC(=O)c1ccc(N2CCCC2)cc1)C1CCN(C(=O)[C@H](C)N)CC1` (stereo partly drawn) [compound 227, N-(1-(1-(L-alanyl)piperidin-4-yl)ethyl)-4-(pyrrolidin-1-yl)benzamide] as the compound, how does the IC50 read?
A: 29.2 µM

Q: Which IC50 does the source give for `CC(NC(=O)c1ccc2ncsc2c1)C1CCN(C(=O)[C@H](C)N)CC1` (stereo partly drawn) [compound 228, N-(1-(1-(L-alanyl)piperidin-4-yl)ethyl)benzo[d]thiazole-6-carboxamide] here?
A: > 100 µM

Q: For `CC(NC(=O)c1cc2cc(Cl)ccc2[nH]1)C1CCN(C(=O)[C@H](C)N)CC1` (stereo partly drawn) [compound 229, N-(1-(1-(L-alanyl)piperidin-4-yl)ethyl)-5-chloro-1H-indole-2-carboxamide], which IC50 is on record?
A: 77.9 µM

Q: For `NCCC(=O)N[C@H]1CC[C@H](NC(=O)c2cc3cc(Cl)ccc3[nH]2)CC1` [compound 230, N-((1r,4r)-4-(3-aminopropanamido)cyclohexyl)-5-chloro-1H-indole-2-carboxamide], which IC50 is on record?
A: 37.5 µM

Q: With `N[C@H]1CC[C@H](NC(=O)c2cc3cc(Cl)ccc3[nH]2)CC1` [compound 231, N-((1r,4r)-4-aminocyclohexyl)-5-chloro-1H-indole-2-carboxamide] as the compound, how does the IC50 read?
A: 91.5 µM

Q: Which IC50 does the source give for `CC(NC(=O)c1cc2ccccc2[nH]1)C1CCN(C(=O)[C@H](C)N)CC1` (stereo partly drawn) [compound 232, N-(1-(1-(L-alanyl)piperidin-4-yl)ethyl)-1H-indole-2-carboxamide] here?
A: > 100 µM

Q: How did the IC50 turn out when `NCCC(=O)N[C@H]1CC[C@H](NC(=O)c2cc3ccccc3[nH]2)CC1` [compound 233, N-((1r,4r)-4-(3-aminopropanamido)cyclohexyl)-1H-indole-2-carboxamide] was run?
A: > 100 µM

Q: Which IC50 does the source give for `N[C@H]1CC[C@H](NC(=O)c2cc3ccccc3[nH]2)CC1` [compound 234, N-((1r,4r)-4-aminocyclohexyl)-1H-indole-2-carboxamide] here?
A: > 100 µM

Q: For `NCCC(=O)N[C@H]1CC[C@H](NC(=O)c2ccc3[nH]ccc3c2)CC1` [compound 235, N-((1r,4r)-4-(3-aminopropanamido)cyclohexyl)-1H-indole-5-carboxamide], which IC50 is on record?
A: 13.4 µM

Q: For `CC(NC(=O)c1ccc2c(c1)no[n+]2[O-])C1CCN(C(=O)[C@H](C)N)CC1` (stereo partly drawn) [compound 236, 5-((1-(1-(L-alanyl)piperidin-4-yl)ethyl)carbamoyl)benzo[c][1,2,5]oxadiazole 1-oxide], which IC50 is on record?
A: > 100 µM

Q: With `CC(NC(=O)c1ccc2nonc2c1)C1CCN(C(=O)[C@H](C)N)CC1` (stereo partly drawn) [compound 237, N-(1-(1-(L-alanyl)piperidin-4-yl)ethyl)benzo[c][1,2,5]oxadiazole-5-carboxamide] as the compound, how does the IC50 read?
A: > 100 µM

Q: How did the IC50 turn out when `CC(NC(=O)c1cnc2ccccc2n1)C1CCN(C(=O)[C@H](C)N)CC1` (stereo partly drawn) [compound 238, N-(1-(1-(L-alanyl)piperidin-4-yl)ethyl)quinoxaline-2-carboxamide] was run?
A: > 100 µM

Q: How did the IC50 turn out when `CC(NC(=O)c1cn2ccsc2n1)C1CCN(C(=O)[C@H](C)N)CC1` (stereo partly drawn) [compound 239, N-(1-(1-(L-alanyl)piperidin-4-yl)ethyl)imidazo[2,1-b]thiazole-6-carboxamide] was run?
A: > 100 µM

Q: With `CC(NC(=O)CCCn1ccnc1)C1CCN(C(=O)[C@H](C)N)CC1` (stereo partly drawn) [compound 241, N-(1-(1-(L-alanyl)piperidin-4-yl)ethyl)-4-(1H-imidazol-1-yl)butanamide] as the compound, how does the IC50 read?
A: 82.9 µM

Q: For `N[C@H]1CC[C@H](NC(=O)c2cc3cc(F)ccc3[nH]2)CC1` [compound 242, N-((1r,4r)-4-aminocyclohexyl)-5-fluoro-1H-indole-2-carboxamide], which IC50 is on record?
A: > 100 µM

Q: How did the IC50 turn out when `CC(NC(=O)c1nc2ccccc2[nH]1)C1CCN(C(=O)[C@H](C)N)CC1` (stereo partly drawn) [compound 243, N-(1-(1-(L-alanyl)piperidin-4-yl)ethyl)-1H-benzo[d]imidazole-2-carboxamide] was run?
A: 72.9 µM

Q: How did the IC50 turn out when `CC(NC(=O)c1cc2ccccc2n1C)C1CCN(C(=O)[C@H](C)N)CC1` (stereo partly drawn) [compound 244, N-(1-(1-(L-alanyl)piperidin-4-yl)ethyl)-1-methyl-1H-indole-2-carboxamide] was run?
A: > 100 µM

Q: How did the IC50 turn out when `Cn1c(C(=O)N[C@H]2CC[C@H](NC(=O)CCN)CC2)cc2ccccc21` [compound 245, N-((1r,4r)-4-(3-aminopropanamido)cyclohexyl)-1-methyl-1H-indole-2-carboxamide] was run?
A: > 100 µM

Q: Which IC50 does the source give for `Cn1c(C(=O)N[C@H]2CC[C@H](N)CC2)cc2ccccc21` [compound 246, N-((1r,4r)-4-aminocyclohexyl)-1-methyl-1H-indole-2-carboxamide] here?
A: > 100 µM

Q: With `CC(NC(=O)c1cnccc1N)C1CCN(C(=O)[C@H](C)N)CC1` (stereo partly drawn) [compound 247, N-(1-(1-(L-alanyl)piperidin-4-yl)ethyl)-4-aminonicotinamide] as the compound, how does the IC50 read?
A: > 100 µM

Q: How did the IC50 turn out when `CC(NC(=O)c1cccc2[nH]ccc12)C1CCN(C(=O)[C@H](C)N)CC1` (stereo partly drawn) [compound 248, N-(1-(1-(L-alanyl)piperidin-4-yl)ethyl)-1H-indole-4-carboxamide] was run?
A: > 100 µM

Q: With `CC(NC(=O)c1ccnc(O)c1)C1CCN(C(=O)[C@H](C)N)CC1` (stereo partly drawn) [compound 249, N-(1-(1-(L-alanyl)piperidin-4-yl)ethyl)-2-hydroxyisonicotinamide] as the compound, how does the IC50 read?
A: 65.9 µM

Q: For `CC(NC(=O)c1ccnc(O)c1)C1CCN(C(=O)[C@H](C)N)CC1` (stereo partly drawn) [compound 250, N-(1-(1-(L-alanyl)piperidin-4-yl)ethyl)-2-hydroxyisonicotinamide], which IC50 is on record?
A: > 100 µM

Q: Which IC50 does the source give for `N[C@H]1CC[C@H](NC(=O)c2ccccn2)CC1` [compound 251, N-((1r,4r)-4-aminocyclohexyl)picolinamide] here?
A: > 100 µM

Q: How did the IC50 turn out when `NCCC(=O)N[C@H]1CC[C@H](NC(=O)c2cnccn2)CC1` [compound 252, N-((1r,4r)-4-(3-aminopropanamido)cyclohexyl)pyrazine-2-carboxamide] was run?
A: 37.4 µM

Q: For `CC(NC(=O)c1nccn1C)C1CCN(C(=O)[C@H](C)N)CC1` (stereo partly drawn) [compound 253, N-(1-(1-(L-alanyl)piperidin-4-yl)ethyl)-1-methyl-1H-imidazole-2-carboxamide], which IC50 is on record?
A: 64.9 µM

Q: Which IC50 does the source give for `Cc1cnccc1C(=O)NC(C)C1CCN(C(=O)[C@H](C)N)CC1` (stereo partly drawn) [compound 254, N-(1-(1-(L-alanyl)piperidin-4-yl)ethyl)-3-methylisonicotinamide] here?
A: > 100 µM

Q: How did the IC50 turn out when `Cc1ccncc1C(=O)NC(C)C1CCN(C(=O)[C@H](C)N)CC1` (stereo partly drawn) [compound 255, N-(1-(1-(L-alanyl)piperidin-4-yl)ethyl)-4-methylnicotinamide] was run?
A: 73.4 µM

Q: With `Cc1cncc(C(=O)NC(C)C2CCN(C(=O)[C@H](C)N)CC2)c1` (stereo partly drawn) [compound 256, N-(1-(1-(L-alanyl)piperidin-4-yl)ethyl)-5-methylnicotinamide] as the compound, how does the IC50 read?
A: 61.6 µM

Q: Which IC50 does the source give for `Cc1ccc(C(=O)NC(C)C2CCN(C(=O)[C@H](C)N)CC2)cn1` (stereo partly drawn) [compound 257, N-(1-(1-(L-alanyl)piperidin-4-yl)ethyl)-6-methylnicotinamide] here?
A: > 100 µM

Q: Which IC50 does the source give for `Cc1nscc1C(=O)NC(C)C1CCN(C(=O)[C@H](C)N)CC1` (stereo partly drawn) [compound 258, N-(1-(1-(L-alanyl)piperidin-4-yl)ethyl)-3-methylisothiazole-4-carboxamide] here?
A: > 100 µM

Q: Which IC50 does the source give for `CC(NC(=O)c1ccn(C)n1)C1CCN(C(=O)[C@H](C)N)CC1` (stereo partly drawn) [compound 259, N-(1-(1-(L-alanyl)piperidin-4-yl)ethyl)-1-methyl-1H-pyrazole-3-carboxamide] here?
A: > 100 µM

Q: How did the IC50 turn out when `CC(NC(=O)c1cc(C(C)(C)C)nn1C)C1CCN(C(=O)[C@H](C)N)CC1` (stereo partly drawn) [compound 260, N-(1-(1-(L-alanyl)piperidin-4-yl)ethyl)-3-(tert-butyl)-1-methyl-1H-pyrazole-5-carboxamide] was run?
A: > 100 µM

Q: `COc1cncc(C(=O)NC(C)C2CCN(C(=O)[C@H](C)N)CC2)n1` (stereo partly drawn) [compound 261, N-(1-(1-(L-alanyl)piperidin-4-yl)ethyl)-6-methoxypyrazine-2-carboxamide] was tested. Which IC50 did it give?
A: > 100 µM
